Measured values published in the supplement of paper PMC10627819.

System: S. aureus DSM 20231
Assay: Bliss interaction score (quartile over a dose matrix) (fitness difference); higher = more antagonism (negative = synergy)
Summary of the method: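 The Bliss score subtracts expected fitness, the product of the single-drug fitness values, from observed fitness. Fitness is plate-normalised OD595 at entry into stationary phase, relative to the robust no-drug mean and capped at 1, with single-drug fitness inferred from combinations. Summaries are quartiles over technical, biological and donor/recipient replicates.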
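Also: first quartile when negative (synergy) and third quartile when positive (antagonism).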

SMILES: COCCOC(=O)C1=C(C)NC(C)=C(C(=O)OC/C=C/c2ccccc2)C1c1cccc([N+](=O)[O-])c1 (centres undefined) [Cilnidipine] + COc1cc(Cc2cnc(N)nc2N)cc(OC)c1OC [Trimethoprim]
- Bliss interaction score: -0.299

SMILES: CC(=O)Oc1cccc2c1C(=O)c1c(OC(C)=O)cc(C(=O)O)cc1C2=O [Diacerein] + CN(C)C(=O)C(CCN1CCC(O)(c2ccc(Cl)cc2)CC1)(c1ccccc1)c1ccccc1 [Loperamide]
- Bliss interaction score: -0.474

SMILES: CN(C)[C@@H]1C(O)=C(C(N)=O)C(=O)[C@@]2(O)C(O)=C3C(=O)c4c(O)ccc(Cl)c4[C@@](C)(O)[C@H]3C[C@@H]12 [Clortetracycline] + O=C(O)c1cc(-c2ccc(F)cc2F)ccc1O [Diflunisal]
- Bliss interaction score: 0.232

SMILES: CN(C)[C@@H]1C(O)=C(C(N)=O)C(=O)[C@@]2(O)C(O)=C3C(=O)c4c(O)ccc(Cl)c4[C@@](C)(O)[C@H]3C[C@@H]12 [Clortetracycline] + CC(=O)Oc1cccc2c1C(=O)c1c(OC(C)=O)cc(C(=O)O)cc1C2=O [Diacerein]
- Bliss interaction score: -0.344

SMILES: CC(=O)Oc1ccccc1C(=O)O [Acetylsalicylicacid] + CCCCc1nc(Cl)c(CO)n1Cc1ccc(-c2ccccc2-c2nnn[nH]2)cc1 [Losartan]
- Bliss interaction score: 0.178

SMILES: Cn1c(=O)c2c(ncn2C)n(C)c1=O [Caffeine] + CC[C@H]1OC(=O)[C@H](C)[C@@H](O[C@H]2C[C@@](C)(OC)[C@@H](O)[C@H](C)O2)[C@H](C)[C@@H](O[C@@H]2O[C@H](C)C[C@H](N(C)C)[C@H]2O)[C@](C)(OC)C[C@@H](C)C(=O)[C@H](C)[C@@H](O)[C@]1(C)O [Clarithromycin]
- Bliss interaction score: -0.357

SMILES: COCCOC(=O)C1=C(C)NC(C)=C(C(=O)OC/C=C/c2ccccc2)C1c1cccc([N+](=O)[O-])c1 (centres undefined) [Cilnidipine] + C[C@H]1c2cccc(O)c2C(=O)C2=C(O)[C@]3(O)C(=O)C(C(N)=O)=C(O)[C@@H](N(C)C)[C@@H]3[C@@H](O)[C@@H]21 [Doxycycline]
- Bliss interaction score: -0.272

SMILES: CC(=O)Oc1ccccc1C(=O)O [Acetylsalicylicacid] + Cc1c(Cl)cccc1Nc1ccccc1C(=O)O [Tolfenamic]
- Bliss interaction score: -0.263

SMILES: CC(=O)Oc1ccccc1C(=O)O [Acetylsalicylicacid] + C=C1/C(=C\C=C2/CCC[C@]3(C)[C@@H]([C@H](C)CCCC(C)C)CC[C@@H]23)C[C@@H](O)C[C@@H]1O [Alfacalcidol]
- Bliss interaction score: -0.294

SMILES: CN(C)[C@@H]1C(O)=C(C(N)=O)C(=O)[C@@]2(O)C(O)=C3C(=O)c4c(O)ccc(Cl)c4[C@@](C)(O)[C@H]3C[C@@H]12 [Clortetracycline] + CC[C@H](c1ccc(O)cc1)[C@@H](CC)c1ccc(O)cc1 [Hexestrol]
- Bliss interaction score: -0.204

SMILES: CC(=O)Oc1cccc2c1C(=O)c1c(OC(C)=O)cc(C(=O)O)cc1C2=O [Diacerein] + COc1cc(Cc2cnc(N)nc2N)cc(OC)c1OC [Trimethoprim]
- Bliss interaction score: -0.243

SMILES: Cn1c(=O)c2c(ncn2C)n(C)c1=O [Caffeine] + CC[C@H]1OC(=O)[C@H](C)C(=O)[C@H](C)[C@@H](O[C@@H]2O[C@H](C)C[C@H](N(C)C)[C@H]2O)[C@](C)(OC)C[C@@H](C)C(=O)[C@H](C)[C@H]2N(CCCCn3cnc(-c4cccnc4)c3)C(=O)O[C@]12C [Telithromycin]
- Bliss interaction score: -0.372

SMILES: O=C(O)c1cc(-c2ccc(F)cc2F)ccc1O [Diflunisal] + CN(C)C(=O)C(CCN1CCC(O)(c2ccc(Cl)cc2)CC1)(c1ccccc1)c1ccccc1 [Loperamide]
- Bliss interaction score: 0.356

SMILES: CN(C)[C@@H]1C(O)=C(C(N)=O)C(=O)[C@@]2(O)C(O)=C3C(=O)c4c(O)ccc(Cl)c4[C@@](C)(O)[C@H]3C[C@@H]12 [Clortetracycline] + CCCc1nc2c(C)cc(-c3nc4ccccc4n3C)cc2n1Cc1ccc(-c2ccccc2C(=O)O)cc1 [Telmisartan]
- Bliss interaction score: -0.261

SMILES: CN(C)[C@@H]1C(O)=C(C(N)=O)C(=O)[C@@]2(O)C(O)=C3C(=O)c4c(O)ccc(Cl)c4[C@@](C)(O)[C@H]3C[C@@H]12 [Clortetracycline] + CC(=O)S[C@@H]1CC2=CC(=O)CC[C@]2(C)[C@H]2CC[C@@]3(C)[C@@H](CC[C@@]34CCC(=O)O4)[C@H]12 [Spironolactone]
- Bliss interaction score: 0.196

SMILES: CC(=O)Oc1cccc2c1C(=O)c1c(OC(C)=O)cc(C(=O)O)cc1C2=O [Diacerein] + C[C@H]1COc2c(N3CCN(C)CC3)c(F)cc3c(=O)c(C(=O)O)cn1c23 [Levofloxacin]
- Bliss interaction score: -0.237

SMILES: Cc1ncc([N+](=O)[O-])n1CCO [Metronidazole] + CCCSc1nc(N[C@@H]2C[C@H]2c2ccc(F)c(F)c2)c2nnn([C@@H]3C[C@H](OCCO)[C@@H](O)[C@H]3O)c2n1 [Ticagrelor]
- Bliss interaction score: 0.152

SMILES: Cn1c(=O)c2c(ncn2C)n(C)c1=O [Caffeine] + CCC[C@@H]1C[C@@H](C(=O)N[C@@H]([C@H]2O[C@H](SC)[C@H](O)[C@@H](O)[C@H]2O)[C@@H](C)O)N(C)C1 [Lincomycin]
- Bliss interaction score: -0.292

SMILES: CC(C)c1c(C(=O)Nc2ccccc2)c(-c2ccccc2)c(-c2ccc(F)cc2)n1CC[C@@H](O)C[C@@H](O)CC(=O)O [Atorvastatin] + CC1(C)S[C@@H]2[C@H](NC(=O)Cc3ccccc3)C(=O)N2[C@H]1C(=O)O [PenicillinG]
- Bliss interaction score: 0.402

SMILES: CC(=O)Oc1ccccc1C(=O)O [Acetylsalicylicacid] + CC(C)Cc1ccc(C(C)C(=O)O)cc1 [Ibuprofen]
- Bliss interaction score: -0.275

SMILES: CO/N=C(\C(=O)N[C@@H]1C(=O)N2C(C(=O)O)=C(COC(C)=O)CS[C@H]12)c1csc(N)n1 [Cefotaxime] + O=c1[nH]cc(F)c(=O)[nH]1 [Fluorouracil]
- Bliss interaction score: -0.114

SMILES: CC(C)c1c(C(=O)Nc2ccccc2)c(-c2ccccc2)c(-c2ccc(F)cc2)n1CC[C@@H](O)C[C@@H](O)CC(=O)O [Atorvastatin] + O=C(O[C@@H]1Cc2c(O)cc(O)cc2O[C@@H]1c1cc(O)c(O)c(O)c1)c1cc(O)c(O)c(O)c1 [EGCG]
- Bliss interaction score: -0.118

SMILES: CN(C)[C@@H]1C(O)=C(C(N)=O)C(=O)[C@@]2(O)C(O)=C3C(=O)c4c(O)ccc(Cl)c4[C@@](C)(O)[C@H]3C[C@@H]12 [Clortetracycline] + OCc1cc(C(O)CNCCCCCCOCCCCc2ccccc2)ccc1O [Salmeterol]
- Bliss interaction score: -0.118

SMILES: CC(C)c1c(C(=O)Nc2ccccc2)c(-c2ccccc2)c(-c2ccc(F)cc2)n1CC[C@@H](O)C[C@@H](O)CC(=O)O [Atorvastatin] + CO/N=C(\C(=O)N[C@@H]1C(=O)N2C(C(=O)O)=C(COC(C)=O)CS[C@H]12)c1csc(N)n1 [Cefotaxime]
- Bliss interaction score: -0.17

SMILES: CC(C)c1c(C(=O)Nc2ccccc2)c(-c2ccccc2)c(-c2ccc(F)cc2)n1CC[C@@H](O)C[C@@H](O)CC(=O)O [Atorvastatin] + COc1cc(Cc2cnc(N)nc2N)cc(OC)c1OC [Trimethoprim]
- Bliss interaction score: 0.453

SMILES: COCCOC(=O)C1=C(C)NC(C)=C(C(=O)OC/C=C/c2ccccc2)C1c1cccc([N+](=O)[O-])c1 (centres undefined) [Cilnidipine] + CC(=O)NC[C@H]1CN(c2ccc(N3CCOCC3)c(F)c2)C(=O)O1 [Linezolid]
- Bliss interaction score: -0.254

SMILES: Cc1cc(C(C)(C)C)c(O)c(C)c1CC1=NCCN1 [Oxymetazoline] + COc1cc(Cc2cnc(N)nc2N)cc(OC)c1OC [Trimethoprim]
- Bliss interaction score: 0.209

SMILES: CC(=O)Oc1ccccc1C(=O)O [Acetylsalicylicacid] + CC[C@H](c1ccc(O)cc1)[C@@H](CC)c1ccc(O)cc1 [Hexestrol]
- Bliss interaction score: -0.455

SMILES: COCCOC(=O)C1=C(C)NC(C)=C(C(=O)OC/C=C/c2ccccc2)C1c1cccc([N+](=O)[O-])c1 (centres undefined) [Cilnidipine] + CN(C)C(=O)C(CCN1CCC(O)(c2ccc(Cl)cc2)CC1)(c1ccccc1)c1ccccc1 [Loperamide]
- Bliss interaction score: -0.32

SMILES: COCCOC(=O)C1=C(C)NC(C)=C(C(=O)OC/C=C/c2ccccc2)C1c1cccc([N+](=O)[O-])c1 (centres undefined) [Cilnidipine] + CO[C@@]12[C@H](COC(N)=O)C3=C(C(=O)C(C)=C(N)C3=O)N1C[C@@H]1N[C@@H]12 [MitomycinC]
- Bliss interaction score: -0.236

SMILES: CN(C)[C@@H]1C(O)=C(C(N)=O)C(=O)[C@@]2(O)C(O)=C3C(=O)c4c(O)ccc(Cl)c4[C@@](C)(O)[C@H]3C[C@@H]12 [Clortetracycline] + C[C@]12CC[C@@H]3c4ccc(O)cc4CC[C@H]3[C@@H]1CC[C@@H]2O [Estradiol]
- Bliss interaction score: 0.237

SMILES: O=C(O)c1cn(C2CC2)c2cc(N3CCNCC3)c(F)cc2c1=O [Ciprofloxacin] + COc1cc2ncnc(Nc3ccc(F)c(Cl)c3)c2cc1OCCCN1CCOCC1 [Gefitinib]
- Bliss interaction score: -0.336

SMILES: CC(=O)Oc1ccccc1C(=O)O [Acetylsalicylicacid] + CC(C)c1c(C(=O)Nc2ccccc2)c(-c2ccccc2)c(-c2ccc(F)cc2)n1CC[C@@H](O)C[C@@H](O)CC(=O)O [Atorvastatin]
- Bliss interaction score: 0.213

SMILES: O=C(O)c1cc(-c2ccc(F)cc2F)ccc1O [Diflunisal] + CC(=O)O[C@H]1C[C@@]2(C)[C@@H](C[C@@H](O)[C@H]3[C@@]4(C)CC[C@@H](O)[C@@H](C)[C@@H]4CC[C@@]32C)/C1=C(\CCC=C(C)C)C(=O)O [Fusidic acid]
- Bliss interaction score: 0.199
